# Reference: patent publication US6953809B2, “Monocyte chemoattractant protein-1 inhibitor compounds” (Zeneca Limited, priority 1997, dated 2005)
# Read-outs that look alike come from different tables or passages of the source.
# Experiments:
# MCP-1 receptor B (CCR2B) = molecular target: T1, MCP-1 receptor B (CCR2B) (Homo sapiens, UniProt P41597); assay: hMCP-1 receptor-binding assay (125I-MCP-1 competition on CHO-CCR2B cell membranes)
# T1 construct: expressed in transfected cells; membrane fragments
# T1 sequence (P41597 1-360 isoform P41597-2): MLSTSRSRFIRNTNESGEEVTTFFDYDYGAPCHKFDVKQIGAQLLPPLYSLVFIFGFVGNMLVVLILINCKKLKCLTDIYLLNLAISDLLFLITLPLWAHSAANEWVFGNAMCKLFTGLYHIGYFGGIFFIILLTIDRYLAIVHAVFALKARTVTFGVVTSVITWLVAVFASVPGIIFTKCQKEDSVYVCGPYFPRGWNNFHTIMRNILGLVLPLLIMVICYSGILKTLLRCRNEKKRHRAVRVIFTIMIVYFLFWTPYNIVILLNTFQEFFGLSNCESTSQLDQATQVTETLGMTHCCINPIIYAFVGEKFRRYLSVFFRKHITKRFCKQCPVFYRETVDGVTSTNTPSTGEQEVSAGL
# Description: a) hMCP-1 Receptor-Binding Assay i) Cloning and Expression of hMCP-1 Receptor
# The MCP-1 receptor B (CCR2B) cDNA was cloned by PCR from THP-1 cell RNA using suitable oligonucleotide primers based on the published MCP-1 receptor sequences (Charo et al., 1994, Proc. Natl. Acad. Sci. USA, 91, 2752). The resulting PCR products were cloned into vector PCR-II™ (InVitrogen, San Diego, Calif.). Error free CCR2B cDNA was subcloned as a Hind III-Not I fragment into the eukaryotic expression vector pcDNA3 (InVitrogen) to generate pcDNA3/CC-CKR2A and pcDNA3/CCR2B respectively.
# Linearised pcDNA3/CCR2B DNA was transfected into CHO-K1 cells by calcium phosphate precipitation (Wigler et al., 1979, Cell, 16, 777). Transfected cells were selected by the addition of Geneticin Sulphate (G418, Gibco BRL) at 1 mg/ml, 24 hours after the cells had been transfected. Preparation of RNA and Northern blotting were carried out as described previously (Needham et al., 1995, Prot. Express. Purific., 6, 134). CHO-K1 clone 7 (CHO-CCR2B) was identified as the highest MCP-1 receptor B expressor. […]
# ii) Preparation of Membrane Fragments […]
# ^125I MCP-1 was prepared using Bolton and Hunter conjugation (Bolton et al., 1973, Biochem. J., 133, 529; Amersham International plc]. Equilibrium binding assays were carried out using the method of Ernst et al., 1994, J. Immunol., 152, 3541. Briefly, varying amounts of ^125I-labeled MCP-1 were added to […] of purified CHO-CCR2B cell membranes in […] of Binding Buffer. After 1 hour incubation at room temperature the binding reaction mixtures were filtered and washed 5 times through a plate washer (Packard Harvester Filtermate™ 196). Scintillation fluid (25 μl, Microscint™-20, a high efficiency liquid scintillation counting cocktail for aqueous samples) was added to each well and the plate was covered with plate sealer and counted (Packard Top Count™). […] Non-specific binding was determined by the inclusion of a 200-fold molar excess of unlabelled MCP-1 in the reaction. […]
# THP-1 cells [1] = assay: hMCP-1 mediated chemotaxis assay; type: cell-based, human; conditions: hMCP-1 induced concentration dependent cell migration
# Experimental: c) hMCP-1 Mediated Chemotaxis Assay.
# In vitro chemotaxis assays were performed using either the human monocytic cell line THP-1 or peripheral blood mixed monocytes obtained from fresh human blood purified by erythrocyte sedimentation followed by density gradient centrifugation over 9.6%(w/v) sodium metrizoate and 5.6%(w/v) polysaccharide, density 1.077 g/ml (Lymphoprep™ Nycomed). Cell migration through polycarbonate membranes was measured by enumerating those passing through either directly by Coulter counting or indirectly by use of a colourimetric viability assay measuring the cleavage of a tetrazolium salt by the mitochondrial respiratory chain (Scudiero D. A. et al. 1988, Cancer Res., 48, 48274833).
# Chemoattractants were introduced into a 96-well microtiter plate which forms the lower well of a chemotaxis chamber fitted with a PVP-free 5 μm poresize polycarbonate adhesive framed filter membrane (NeuroProbe MB series, Cabin John, Md. 20818, USA) according to the manufacturer's instructions. The chemoattractant was diluted as appropriate in synthetic cell culture medium, RPMI 1640 (Gibco) supplemented with 2 mM glutamine and 0.5% BSA. […] The plate was incubated at 37° C. for 3 h and the absorbance of the soluble formazan product was read on a microtitre plate reader at 450 nm. […]
# THP-1 cells [2] = assay: MCP-1 mediated calcium flux in THP-1 cells; type: cell-based, human; conditions: stimulation of THP-1 cells with hMCP-1; dose response curves; read-out: approximate EC50 for rise in [Ca2+]i
# Experimental: b) MCP-1 Mediated Calcium Flux in THP-1 Cells
# The human monocytic cell line THP-1 was grown in a synthetic cell culture medium RPMI 1640 supplemented with 10% foetal calf serum, 2 mM glutamine and Penicillin-Streptomycin (at 50 μg streptomycin/mil, Gibco BRL). THP-1 cells were washed in HBSS (lacking Ca^2+ and Mg^2+)+1 mg/ml BSA and resuspended in the same buffer at a density of 3×10^6 cells/ml. The cells were then loaded with […] FURA-2/AM for 30 min at 37° C., washed twice in HBSS, and resuspended at 1×10^6 cells/ml. […] The cuvette was placed in a fluorescence spectrophotometer (Perkin Elmer, Norwalk, Conn.) and preincubated for 4 min at 37° C. with stirring. Fluorescence was recorded over 70 sec and cells were stimulated by addition of hMCP-1 to the cuvette after 10 sec. [Ca^2+]i was measured by excitation at 340 nm and 380 nm alternately and subsequent measurement of the intensity of the fluorescence emission at 510 nm. […] Rmax is the maximal fluorescence ratio determined after addition of […] Ionomycin, Rmin is the minimal ratio determined by the subsequent addition of a Ca^2+ free solution containing 5 mM EGTA, and Sf2/Sb2 is the ratio of fluorescence values at 380 nm excitation determined at Rmin and Rmax, respectively. […]
Molecule,melting point [°C],further results
O=C(O)c1cc2ccccc2n1Cc1ccc(Cl)c(Cl)c1,198,
O=C(O)c1cc2cc(Br)ccc2n1Cc1ccc(Cl)c(Cl)c1,232 to 233,
O=C(O)c1cc2ccc(Cl)cc2n1Cc1ccc(Cl)c(Cl)c1,219 to 220,
COc1cccc2c1cc(C(=O)O)n2Cc1ccc(Cl)c(Cl)c1,220 to 221,
O=C(O)c1cc2ccc(C(F)(F)F)cc2n1Cc1ccc(Cl)c(Cl)c1,238 to 239,
COc1ccc2cc(C(=O)O)n(Cc3ccc(Cl)c(Cl)c3)c2c1,165 to 166,
CC(=O)c1c(C(=O)O)n(Cc2ccc(Cl)c(Cl)c2)c2ccccc12,163 to 164,
"O=C(O)c1c([C@@H]2C[C@H]2C(=O)O)c2ccccc2n1Cc1ccc(Cl)c(Cl)c1 (relative stereo) [Example 3.58, N-(3,4-Dichlorobenzyl)-3-(trans-2-carboxy-cyclopropyl)indole-2-carboxylic acid]",184 to 185,
"CCOC(=O)c1cc2cc([N+](=O)[O-])ccc2n1Cc1ccc(Cl)c(Cl)c1 [Example 1.03, Ethyl N-(3,4-dichlorobenzyl)-5-nitroindole-2-carboxylate]",133 to 140,
"CCOC(=O)c1cc2cc(Br)ccc2n1Cc1ccc(Cl)c(Cl)c1 [Example 1.04, Ethyl 5-bromo-N-(3,4-dichlorobenzyl)indole-2-carboxylate]",95 to 96,
"COc1ccc(Cn2c(C(=O)O)cc3cc(F)ccc32)cc1 [Example 3.23, 5-Fluoro-N-(4-methoxybenzyl)indole-2-carboxylic acid]",,"IC50 (MCP-1 receptor B (CCR2B); competition with 100 pM labelled MCP-1, CHO-CCR2B cell membranes, read-out: IC50 in the hMCP-1 receptor binding assay): 7380 nM"
"O=C(O)c1cc2ccc([N+](=O)[O-])cc2n1Cc1ccc(Cl)c(Cl)c1 [Example 3.64, N-(3,4-Dichlorobenzyl)-6-nitroindole-2-carboxylic acid]",256 to 257,
"O=C(O)c1cc2c([N+](=O)[O-])cccc2n1Cc1ccc(Cl)c(Cl)c1 [Example 3.65, N-(3,4-Dichlorobenzyl)-4-nitroindole-2-carboxylic acid]",296 to 297,
"CC(=O)c1ccc2c(c1)cc(C(=O)O)n2Cc1ccc(Cl)c(Cl)c1 [Example 3.85, 5-Acetyl-N-(3,4-Dichlorobenzyl)indole-2-carboxylic acid]",261 to 262,
"CC(=O)Nc1ccc2c(c1)cc(C(=O)O)n2Cc1ccc(Cl)c(Cl)c1 [Example 4, N-(3,4-Dichlorobenzyl)-5-acetylaminoindole-2-carboxylic acid]",245 to 246,
"MCP-1: human Monocyte Chemoattractant Protein-1, a C—C chemokine; natural ligand used to validate the assays",,"concentration of maximal cell migration (biphasic response) (THP-1 cells [1]): 0.5-1.0 nm; EC50 (THP-1 cells [2]): ~2 nM; IC50 (MCP-1 receptor B (CCR2B); membrane fragments from CHO-CCR2B cells, cold competition with 125I-labeled MCP-1, read-out: IC50 of MCP-1 binding to CCR2B): 0.11 nM; Kd (MCP-1 receptor B (CCR2B); membrane fragments from CHO-CCR2B cells, equilibrium binding): 0.12 nM"
